Assay results as given in patent US8268813B2, “Zilpaterol enantiomer compositions and methods of making and using such compositions” (Intervet International B.V., priority 2006, dated 2012).
Several values for one entry are separate records, joined by “and”; a condition that tells them apart may be missing. Equal values may be shown once. Read-outs that look alike come from different tables or passages of the source.

Assays:
[1] = molecular target: T1, human μ-opioid receptor (Homo sapiens, UniProt P35372); experiment: Radioligand binding assay, [3H]DAMGO, transfected HEK-293 cell membranes
T1 construct: expressed in transfected cells; host or cells: HEK-293 cells; membrane homogenates
T1 sequence (P35372 whole entry): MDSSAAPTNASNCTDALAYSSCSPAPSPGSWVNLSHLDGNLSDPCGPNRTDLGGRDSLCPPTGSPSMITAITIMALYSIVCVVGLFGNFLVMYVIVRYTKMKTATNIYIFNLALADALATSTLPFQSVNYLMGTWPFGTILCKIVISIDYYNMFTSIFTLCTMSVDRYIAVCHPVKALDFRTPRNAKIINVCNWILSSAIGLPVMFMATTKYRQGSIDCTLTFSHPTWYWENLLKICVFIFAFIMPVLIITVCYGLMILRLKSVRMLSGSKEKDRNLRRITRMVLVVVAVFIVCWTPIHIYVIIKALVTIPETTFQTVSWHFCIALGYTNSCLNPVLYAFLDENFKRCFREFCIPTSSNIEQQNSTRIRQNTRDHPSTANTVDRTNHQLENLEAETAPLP
Description: This investigation was conducted using a radioligand binding assay.
Non-specific binding was determined in the presence of 10 μM naloxone. Assay volume and format was 250 μl in 96-well plate. The test compound was added as a 10-fold concentrated solution, and the maximum tolerable DMSO concentration was 1%. Following incubation, the samples were filtered rapidly under vacuum through glass fiber filters (GF/B, Packard), pre-soaked with 0.3% PEI, and rinsed several times with ice-cold 50 mM Tris-HCl using a 96-sample cell harvester (Unifilter, Packard). The filters were dried, and counted for radioactivity in a scintillation counter (Topcount, Packard) using a scintillation cocktail (Microscint 0, Packard). The results were expressed as percent inhibition of the control radioligand specific binding.
Specific ligand binding to the receptors is the difference between the total binding and the non-specific binding determined in the presence of an excess of unlabelled ligand. The results are expressed as a percent of control specific binding and as a percent inhibition of control specific binding obtained in the presence of the test compounds.
The IC50 values (concentration causing a half-maximal inhibition of control specific binding) and Hill coefficients (nH) were determined by non-linear regression analysis of the competition curves using Hill equation curve fitting. […] Here, L is the concentration of radioligand in the assay, and KD is the affinity of the radioligand for the receptor.

[2] = molecular target: β2 adrenergic receptors in guinea pig trachea (Cavia porcellus, UniProt Q8K4Z4)
β2 adrenergic receptors in guinea pig trachea, sequence (Q8K4Z4 whole entry): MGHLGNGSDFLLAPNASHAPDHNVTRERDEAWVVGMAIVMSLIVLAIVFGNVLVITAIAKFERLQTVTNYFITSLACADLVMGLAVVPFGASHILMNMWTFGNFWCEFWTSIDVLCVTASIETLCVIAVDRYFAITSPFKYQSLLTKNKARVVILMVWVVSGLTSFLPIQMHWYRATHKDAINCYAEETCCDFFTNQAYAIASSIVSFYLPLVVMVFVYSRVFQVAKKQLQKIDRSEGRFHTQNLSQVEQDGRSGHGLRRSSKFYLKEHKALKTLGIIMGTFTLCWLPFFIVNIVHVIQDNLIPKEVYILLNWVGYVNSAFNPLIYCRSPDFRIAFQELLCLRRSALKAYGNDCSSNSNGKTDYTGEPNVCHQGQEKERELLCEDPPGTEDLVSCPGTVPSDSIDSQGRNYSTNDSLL
Description: In this experiment, β2 adrenergic receptor agonist activities were functionally determined using a quantitative ex-vivo guinea pig trachea bioassay. […] Following extensive washings and recovery to the initial state, the tissues were exposed to a single or several cumulative concentrations of the test compounds or the same agonist. Each concentration was left in contact with the tissues until a stable response was obtained. […] Assay volume and format was 20 ml organ baths. […] Following washings, the tissues were contracted again with carbachol, and then exposed to increasing concentrations of the test compound or the same agonist. […] If it occurred, a recovery of contraction by the test compound indicated an antagonist activity at the β2 receptors. The parameter measured was the maximal change in tension induced by each compound concentration. […] The agonist efficacy and potency of the test compounds were evaluated respectively in terms of Emax values (maximum response) and EC50 values (concentration producing a half-maximum response). These were determined from the concentration-response curves.

[3] = test system: μ-opioid receptor; experiment: Functional ex-vivo isolated organ bioassay (Guinea pig ileum), μ-opioid agonist response; conditions: Applicants believe results may be faulty
[4] = Table 12, test concentration 1.0E−03 M
[5] = Table 12, test concentration 1.0E−04 M
[6] = Table 12, test concentration 1.0E−05 M
[7] = Table 12, test concentration 1.0E−06 M
[8] = Table 12, test concentration 3.0E−05 M
[9] = Table 12, test concentration 3.0E−06 M
[10] = Table 12, test concentration 3.0E−07 M
[11] = Table 12, test concentration 3.0E−08 M
[12] = calculated from the data in Table 12
[13] = first assay, test concentration 1.0E−05 M
[14] = repeat assay, test concentration 1.0E−03 M
[15] = Table 12, test concentration 3.0E−04 M

For `CC(C)N[C@H]1CCn2c(=O)[nH]c3cccc(c32)[C@@H]1O` [6S,7S enantiomer, 6S,7S zilpaterol enantiomer], the IC50 [1] was 17 µM, the Ki [1] was 7 µM and the “binding to the μ-opioid receptor” value [1] was “greater binding”. For the same molecule, the “% of Control Specific Binding, Mean” value [1, 4] was 1.2%, the “% of Control Specific Binding, Run 1” value [1, 4] was 1.4% and the “% of Control Specific Binding, Run 2” value [1, 4] was 0.9%. The “% of Control Specific Binding, Mean” value [1, 5] was 16.4%, the “% of Control Specific Binding, Run 1” value [1, 5] was 15.9% and the “% of Control Specific Binding, Run 2” value [1, 5] was 16.9%. The “% of Control Specific Binding, Mean” value [1, 6] was 60.2%, the “% of Control Specific Binding, Run 1” value [1, 6] was 61.1% and the “% of Control Specific Binding, Run 2” value [1, 6] was 59.2%. The “% of Control Specific Binding, Mean” value [1, 7] was 87.7%, the “% of Control Specific Binding, Run 1” value [1, 7] was 90.9% and the “% of Control Specific Binding, Run 2” value [1, 7] was 84.6%. For the same molecule, the “% of Control Specific Binding, Mean” value [1, 8] was 36.1%, the “% of Control Specific Binding, Run 1” value [1, 8] was 34.9% and the “% of Control Specific Binding, Run 2” value [1, 8] was 37.2%. For the same molecule, the “% of Control Specific Binding, Mean” value [1, 9] was 79.1%, the “% of Control Specific Binding, Run 1” value [1, 9] was 81.0% and the “% of Control Specific Binding, Run 2” value [1, 9] was 77.2%. The “% of Control Specific Binding, Mean” value [1, 10] was 95.3%, the “% of Control Specific Binding, Run 1” value [1, 10] was 97.5% and the “% of Control Specific Binding, Run 2” value [1, 10] was 93.2%. The “% of Control Specific Binding, Mean” value [1, 11] was 95.8%, the “% of Control Specific Binding, Run 1” value [1, 11] was 93.9% and the “% of Control Specific Binding, Run 2” value [1, 11] was 97.7%. For the same molecule, the “nH (Hill coefficient)” value [1, 12] was 0.9, the “% Inhibition of Control Specific Binding” value [1, 13] was 34% and the “% of Control Specific Binding, Mean” value [1, 13] was 66.3%. The “% of Control Specific Binding, Run 1” value [1, 13] was 67.2%, the “% of Control Specific Binding, Run 2” value [1, 13] was 65.4% and the “% Inhibition of Control Specific Binding” value [1, 14] was 100%. The “% of Control Specific Binding, Mean” value [1, 14] was 0.2%, the “% of Control Specific Binding, Run 1” value [1, 14] was 0.1% and the “% of Control Specific Binding, Run 2” value [1, 14] was 0.4%.

With `CC(C)NC1CCn2c(=O)[nH]c3cccc(c32)C1O` (racemic) [Racemic trans, 4,5,6,7-tetrahydro-7-hydroxy-6-(isopropylamino)imidazo[4,5,1-jk]-[1]benzazepin-2(1H)-one, reference compound] the IC50 [1] was 31 µM, the Ki [1] was 13 µM and the “binding to the μ-opioid receptor” value [1] was “greater binding”. The “% of Control Specific Binding, Mean” value [1, 4] was 2.9%, the “% of Control Specific Binding, Run 1” value [1, 4] was 2.4% and the “% of Control Specific Binding, Run 2” value [1, 4] was 3.3%. The “% of Control Specific Binding, Mean” value [1, 5] was 23.7%, the “% of Control Specific Binding, Run 1” value [1, 5] was 24.5% and the “% of Control Specific Binding, Run 2” value [1, 5] was 22.9%. For the same molecule, the “% of Control Specific Binding, Mean” value [1, 6] was 73.7%, the “% of Control Specific Binding, Run 1” value [1, 6] was 76.7% and the “% of Control Specific Binding, Run 2” value [1, 6] was 70.8%. The “% of Control Specific Binding, Mean” value [1, 7] was 90.0%, the “% of Control Specific Binding, Run 1” value [1, 7] was 84.9% and the “% of Control Specific Binding, Run 2” value [1, 7] was 95.1%. The “% of Control Specific Binding, Mean” value [1, 8] was 47.5%, the “% of Control Specific Binding, Run 1” value [1, 8] was 49.3% and the “% of Control Specific Binding, Run 2” value [1, 8] was 45.6%. The “% of Control Specific Binding, Mean” value [1, 9] was 81.8%, the “% of Control Specific Binding, Run 1” value [1, 9] was 76.2% and the “% of Control Specific Binding, Run 2” value [1, 9] was 87.4%. For the same molecule, the “% of Control Specific Binding, Mean” value [1, 10] was 91.2%, the “% of Control Specific Binding, Run 1” value [1, 10] was 92.1% and the “% of Control Specific Binding, Mean” value [1, 11] was 98.3%. The “% of Control Specific Binding, Run 1” value [1, 11] was 105.8%, the “% of Control Specific Binding, Run 2” value [1, 11] was 90.9% and the “nH (Hill coefficient)” value [1, 12] was 0.9. The “% Inhibition of Control Specific Binding” value [1, 13] was 24%, the “% of Control Specific Binding, Mean” value [1, 13] was 76.2% and the “% of Control Specific Binding, Run 1” value [1, 13] was 76.2%. For the same molecule, the “% of Control Specific Binding, Run 2” value [1, 13] was 76.2%, the “% Inhibition of Control Specific Binding” value [1, 14] was 98% and the “% of Control Specific Binding, Mean” value [1, 14] was 2.2%. The “% of Control Specific Binding, Run 1” value [1, 14] was 1.6% and the “% of Control Specific Binding, Run 2” value [1, 14] was 2.9%.

`CC(C)(C)NCC(O)c1ccc(O)c(CO)c1` (centres unmarked) [Salbutamol, salbutamol] was tested, and the “Percent of the Control Response to Salbutamol at 3.0E−07 M, Mean” value (“Percent of the Control Response” below) ([2]; Table 6, concentration 3.0E−08 M) was 50%, the “Percent of the Control Response” value ([2]; Table 6, concentration 3.0E−09 M) was 8% and the “Percent of the Control Response” value ([2]; Table 6, highest concentration 3.0E−07 M + ICI 118551 3.0E−07 M) was 2%. For the same molecule, the “Percent of the Control Response” value ([2]; Table 7, concentration 3.0E−08 M) was 53%, the “Percent of the Control Response” value ([2]; Table 7, concentration 3.0E−09 M) was 11% and the “Percent of the Control Response” value ([2]; Table 7, highest concentration 3.0E−07 M + ICI 118551 3.0E−07 M) was 5%.

With `CC(C)N[C@@H]1CCn2c(=O)[nH]c3cccc(c32)[C@H]1O` (single isomer, unassigned) [6R,7R enantiomer, 6R,7R zilpaterol enantiomer] the IC50 [1] was 320 µM, the Ki [1] was 130 µM and the “binding to the μ-opioid receptor” value [1] was “binds weakly”. The “% of Control Specific Binding, Mean” value [1, 4] was 24.1%, the “% of Control Specific Binding, Run 1” value [1, 4] was 23.0% and the “% of Control Specific Binding, Run 2” value [1, 4] was 25.2%. For the same molecule, the “% of Control Specific Binding, Mean” value [1, 5] was 71.1%, the “% of Control Specific Binding, Run 1” value [1, 5] was 71.3% and the “% of Control Specific Binding, Run 2” value [1, 5] was 70.8%. The “% of Control Specific Binding, Mean” value [1, 6] was 81.3%, the “% of Control Specific Binding, Run 1” value [1, 6] was 80.4% and the “% of Control Specific Binding, Run 2” value [1, 6] was 82.1%. For the same molecule, the “% of Control Specific Binding, Mean” value [1, 7] was 89.3%, the “% of Control Specific Binding, Run 2” value [1, 7] was 87.5% and the “% of Control Specific Binding, Mean” value [1, 15] was 43.5%. The “% of Control Specific Binding, Run 2” value [1, 15] was 40.4%, the “% of Control Specific Binding, Mean” value [1, 8] was 80.7% and the “% of Control Specific Binding, Run 1” value [1, 8] was 73.9%. The “% of Control Specific Binding, Run 2” value [1, 8] was 87.5%, the “% of Control Specific Binding, Run 1” value [1, 9] was 92.1% and the “% of Control Specific Binding, Run 2” value [1, 9] was 88.7%. For the same molecule, the “% of Control Specific Binding, Mean” value [1, 10] was 93.6%, the “% of Control Specific Binding, Run 1” value [1, 10] was 94.8% and the “% of Control Specific Binding, Run 2” value [1, 10] was 92.4%. For the same molecule, the “nH (Hill coefficient)” value [1, 12] was 0.9, the Ki ([1]; calculated from the data in Table 12, Cheng Prusoff) was 130 µM and the “% Inhibition of Control Specific Binding” value [1, 13] was 7%. For the same molecule, the “% of Control Specific Binding, Mean” value [1, 13] was 92.9%, the “% of Control Specific Binding, Run 1” value [1, 13] was 90.8% and the “% of Control Specific Binding, Run 2” value [1, 13] was 95.0%. For the same molecule, the “% Inhibition of Control Specific Binding” value [1, 14] was 82%, the “% of Control Specific Binding, Mean” value [1, 14] was 17.9% and the “% of Control Specific Binding, Run 1” value [1, 14] was 17.8%. The “% of Control Specific Binding, Run 2” value [1, 14] was 18.0% and the “μ-opioid agonist response” value [3] was “greater μ-opioid agonist response than both the 6S,7S zilpaterol enantiomer and racemic trans zilpaterol”.

In the case of `C[C@@H](NC(=O)[C@@H](N)Cc1ccc(O)cc1)C(=O)NCC(=O)N(C)[C@@H](Cc1ccccc1)C(=O)NCCO` [DAMGO, reference compound], the “nH (Hill coefficient)” value ([1]; reference compound, three independent experiments) is reported as 1.0 and 0.9.
